From article PMC6510909 (Investigational New Drugs, 2018)
Like-named read-outs stand apart in the source and are kept apart here.

System: patients with previously untreated metastatic PDAC
Conditions: for Overall safety and tolerability: in combination with nab-P + G, up to 200 mg twice daily
From the text: Patients were ≥ 18 years of age with previously untreated metastatic PDAC (measurable per Response Evaluation Criteria in Solid Tumors [RECIST] v 1.1); and an Eastern Cooperative Oncology Group (ECOG) performance status ≤1 and adequate hematologic, renal, and hepatic function. […] All patients provided written informed consent prior to enrollment.
Screening occurred within 21 days before the first MMB dose and included medical history and prior/concomitant medication review, physical exam and assessments of vital signs, ECOG performance status, pregnancy test (females), laboratory assessment, adverse event (AE) assessment, and staging CT or MRI. MMB was given orally once or twice daily as per the assigned dosing cohort: Cohort 1–100 mg MMB once daily; Cohort 2–150 mg MMB once daily; Cohort 3–200 mg MMB once daily; Cohort 4–150 mg MMB twice daily; and Cohort 5–200 mg MMB twice daily. […] Each dose cohort consisted of 3 patients, unless a dose-limiting toxicity (DLT) was experienced during the first 28 days of treatment. If one DLT was experienced, 3 additional patients were enrolled in the dose cohort. If a second DLT was experienced in the same cohort, MTD was considered to be exceeded. Dose escalation continued from Dose Level 2 to 3 to 4 to 5 if no DLT occurred in 3 evaluable subjects or < 2 DLTs occurred in 6 evaluable patients within each dose level.
Primary endpoint was incidence of DLT(s) based on the Common Terminology Criteria for Adverse Events (CTCAE) version 4.03. Secondary endpoints were overall survival (OS) (defined as the time interval from the first dose of MMB to death from any cause; patients lost to follow-up or who survived until the end of study were censored at the last date that they were known to be alive), progression-free survival (PFS) (defined as the time interval from the first dose of MMB to the earlier of the first documentation of definitive disease progression or death from any cause), overall response rate (ORR) (proportion of patients who achieved a complete or partial response [CR or PR, respectively] during MMB therapy), and duration of response (time from CR or PR to definitive disease progression or death from any cause).
Planned enrollment was up to 30 patients based on the standard 3 + 3 design. The efficacy analyses were conducted in all enrolled patients. Safety analyses were conducted in all enrolled patients who received ≥1 dose of study treatment. Descriptive summary statistics were provided for patient characteristics and safety variables. Kaplan-Meier estimates were used for OS, PFS, duration of response, and their 95% confidence intervals (CIs). The ORR was summarized for each dose level cohort with corresponding 2-sided 95% exact CIs based on the Clopper-Pearson method.

[1] = all cohorts, MMB + nab-P + G, n = 25
[2] = all cohorts, MMB + nab-P + G, AE consistent with JAK1/2 inhibition

N#CCNC(=O)c1ccc(-c2ccnc(Nc3ccc(N4CCOCC4)cc3)n2)cc1 [MMB, momelotinib]
Dose-limiting toxicity (Grade 3 diarrhea), patients (100 mg MMB once daily + nab-P + G): 1 patient
Dose-limiting toxicity (Grade 3 diarrhea), patients (200 mg MMB once daily + nab-P + G): 1 patient
Maximum tolerated dose (MTD) (MMB up to 200 mg twice daily + nab-P + G): not reached
Deaths due to TEAEs [1]: no deaths
Grade 3 MMB-related AE deep vein thrombosis [1]: 4.0%
Grade 3 MMB-related AE dehydration [1]: 4.0%
Grade 3 MMB-related AE diarrhea [1]: 12.0%
Grade 3 MMB-related AE fatigue [1]: 4.0%
Grade 3 MMB-related AE febrile neutropenia [1]: 4.0%
Grade 3 MMB-related AE generalized edema [1]: 4.0%
Grade 3 MMB-related AE hypertension [1]: 4.0%
Grade 3 MMB-related AE malaise [1]: 4.0%
Grade 3 MMB-related AE nephrolithiasis [1]: 4.0%
Grade 3 MMB-related AE peripheral edema [1]: 4.0%
Grade 3 MMB-related AE peripheral sensory motor neuropathy [1]: 8.0%
Grade 3 MMB-related AE polyneuropathy [1]: 4.0%
Grade 3 MMB-related AE respiratory distress [1]: 4.0%
Grade 3 MMB-related AE thrombocytopenia [1]: 8.0%
Grade 3 MMB-related AE tremor [1]: 4.0%
Grade 3 or 4 AEs considered related to MMB [1]: 44%
Grade 3 or 4 TEAEs, patients [1]: 88%
Grade 3 or 4 neutropenia, patients [1]: 32%
Grade 4 MMB-related event embolic stroke [1]: 4.0%
Grade 4 MMB-related event increased blood uric acid [1]: 4.0%
Grade 4 MMB-related event neutropenia [1]: 4.0%
Neutropenia Grade 3, patients [1]: 16%
Neutropenia Grade 4, patients [1]: 16%
Patients with at least one treatment-emergent AE (TEAE) [1]: All patients
Peripheral neuropathy attributed by investigators as related to the drug, patients [1]: 16%
Peripheral neuropathy leading to discontinuation of MMB, patients [1]: 8%
Peripheral sensory neuropathy attributed by investigators as related to the drug, patients [1]: 24%
Pneumonia Grade 3, patients [1]: 24%
SAEs considered related to MMB, patients [1]: 24%
Serious AEs (SAEs), patients [1]: 72%
TEAE abdominal pain, patients [1]: 44%
TEAE alopecia, patients [1]: 40%
TEAE anemia, patients [1]: 68%
TEAE constipation, patients [1]: 52%
TEAE decreased appetite, patients [1]: 40%
TEAE diarrhea, patients [1]: 64%
TEAE dysgeusia, patients [1]: 40%
TEAE fatigue, patients [1]: 80%
TEAE hypertension, patients [1]: 36%
TEAE nausea, patients [1]: 76%
TEAE peripheral edema, patients [1]: 48%
TEAE peripheral neuropathy, patients [1]: 36%
TEAE peripheral sensory neuropathy, patients [1]: 36%
TEAE pyrexia, patients [1]: 56%
TEAE vomiting, patients [1]: 52%
Peripheral neuropathy, predefined AE of interest, patients (all cohorts, MMB + nab-P + G, n = 25, higher incidence at the two highest dose levels): 60%
AE neutropenia, patients [2]: 32%
AE thrombocytopenia, patients [2]: 20%
Overall safety and tolerability: safe and well tolerated
Overall safety and tolerability (listed as Momelotinib): well tolerated
Maximum administered dose (MAD) (twice daily, + nab-P + G): 200 mg
